Data set [1] deals with Carrageenan-Induced Rat-Paw Edema. The data set can be described thus: Carrageenan Induced Rat-Paw Edema, dermal application (antiinflammatory). The data set is classed as in vivo. To be noted: for Measurement of Edema at 3 hr.: 4 hr pretreatment; for Activity applied dermally compared with orally for a given dose: dermal vs oral, Formula B cream (pH=3.5) for Example 74. As to the method: On the day prior to the test, an area of about 1"×1" of the lower back just above the tail of each of the rats was shaved and depilated with the commercially available hair removal preparation--Nair®. The rats were returned to the vivarium for feed and water.
The following day each rat was weighed and the volume of the left hind limb recorded. The rats were randomized into groups. Creams were applied in the following manner: 0.2 ml of the cream vehicle (control--no active agent) or formulation containing active ingredient was rubbed thoroughly onto the shaved depilated area of the rat's back for 10-15 seconds. The rats were immediately placed into plexiglass observation cylinders to restrict movement so as to prohibit accidental oral ingestion of the cream. The rats were then placed in a quiet room for 4 hr. Four hours after dosing, 0.1 ml of 1% carrageenan was injected into the left hind limb of each rat. The rats were returned to their observation cylinders and placed in the quiet room for an additional 3 hr time, after which the volume of the left hind limb was determined. The degree of edema was determined by subtracting limb volume at 0 time from the volume determined 3 hr after carrageenan injection. Two tail Dunnett's t-tests were used to compare the edema of the treated groups with the appropriate controls (Dunnet, C. W. (1955); J. AM. STAT. ASSOC. 50: 1096-1121).
Several compounds of Formula I were mixed with the creams as prepared above so as to obtain cream containing 3.2 weight percent of each compound based on the weight of free acid or the ester. Rats in groups of 6 (randomized) were each treated with 0.2 ml of the cream containing the compound using the foregoing Carrageenan Induced Rat-Paw Edema test. The control rats were treated with cream having no test compound.
In addition, one preferred compound was tested further using the foregoing Carrageenan-Induced Rat-Paw Edema test at various concentrations in the cream of Formula B (pH=3.5).
In general terms: Carrageenan injected into the paw causes an acute inflammation.

For data set [2] the following is noted: quotation from Remington's, 16th Ed., page 1523; cited from earlier work.
Data set [3] has as its system Acetylcholine Induced Abdominal Constriction. The data set can be described thus: Acetylcholine Induced Abdominal Constriction Test in Mice, dermal application (analgetic). Type of data set: in vivo, mouse. To be noted: Formula A cream pH = 7.0, 4 hr pretreatment. As to the method:
Active agent was incorporated into the cream described under Formual A above (pH=7.0) at various concentrations calculated on a free acid basis.
Mice were prepared for the test by shaving an area measuring 3/4"×3/4" on their backs behind their heads and then depilating with Nair®, a cosmetic hair remover. The mice were given free access to feed and water prior to the experiment. On the following day the mice were weighed and fitted with a cardboard collar (13/4"×13/4" with a 1/2" hole in the center) around the neck to prevent ingestion of applied compounds. The mice were randomized into groups of 10 using random tables generated by the IBM scrambler. A table of random permutations of blocks of order 3 was used to select the control and treated groups. The randomized mice were fed and placed in individual observation cages 1 hr prior to application of 50 microliters of the cream (by rubbing onto the skin for approximately 10 seconds).
The mice acting as controls were treated with cream having no test compound in it. Four hours after the application of the cream to the depilated area, acetylcholine bromide was injected intraperitoneally at 6 mg/kg (10 ml/kg in saline) with a plastic syringe with a 5/8 inch, 25-gauge disposable needle. Each mouse was immediately placed under an inverted 1 liter beaker and observed for 3 minutes for the presence of abdominal constriction. If no abdominal constriction was observed during this period, the response was considered blocked. ED50 and 95% confidence limits were determined by computer using a probit analysis method. Ten mice were used at each concentration, including controls.
The following results in Table 5 were obtained using the foregoing method using the cream of Formula A (pH=7.0) as described above having mixed therein the compound of Example 74 in comparison to controls wherein no test compound was present.

[4] abbreviates: Table 3, Formula A cream, pH = 7.0, 0.2 ml, 3.2% by weight (free acid basis or ester), dermal.
Where [5] appears, read: Table 3, Formula A cream, pH = 7.0, 0.2 ml, 3.2% by weight, dermal, p = <0.05.
The mark [6] stands for this setting: Table 4, first series, Formula B pH 3.5, 0.032 % (W/W), 0.37 mg/kg dermal.
Setting [7] is: Table 4, second series, Formula B pH 3.5, 0.01 % (W/W), 0.10 mg/kg dermal.
Where [8] appears, read: Table 4, second series, Formula B pH 3.5, 0.032 % (W/W), 0.32 mg/kg dermal.
The mark [9] stands for this setting: Table 4, second series, Formula B pH 3.5, 0.10 % (W/W), 0.94 mg/kg dermal.

Structures can show the parent of a compound that is named as a salt.

Regarding `CCOC(=O)Cc1cccc(C(=O)c2ccccc2)c1N` [Example 5, 2-Amino-3-benzoylbenzeneacetic acid, ethyl ester], in data set [1] (setting [4]), the “Measurement of Edema at 3 hr.” value is listed as 0.27 ± 0.18 ml ± S.D. Besides, the “% Change (edema vs control)” value in data set [1] (setting [5]) is -71%.
For `Cc1ccc(C(=O)c2cc(Cl)cc(CC(=O)O)c2N)cc1` [Example 55, 2-Amino-3-(4-methylbenzoyl)-5-chlorobenzeneacetic acid, sodium salt, hydrate [4:3]] the same measures were 0.33 ± 0.20 ml ± S.D and -64%.
For `O=C([O-])c1ccccc1O.[Na+]` [sodium salicylate], the “Skin permeation compared with salicylic acid” value in data set [2] was “permeates poorly compared with salicylic acid”.
In the case of `CSc1ccc(C(=O)c2cc(F)cc(CC(=O)O)c2N)cc1` [Example 19, 2-Amino-3-[(4-methylthio)benzoyl]-5-fluorobenzeneacetic acid, sodium salt], the “Measurement of Edema at 3 hr.” value in data set [1] (setting [4]) is recorded as 0.55 ± 0.14 ml ± S.D. The “% Change (edema vs control)” value in data set [1] (setting [5]) is -41%.
With `COc1ccc2c(c1)c(CC(=O)O)c(C)n2C(=O)c1ccc(Cl)cc1` [indomethacin, reference compound], the “Activity applied dermally compared with orally for a given dose” value in data set [1] (comparative study) is given as “markedly less active when applied dermally than when given orally for a given dose”.
Take `CCOC(=O)Cc1cccc(C(=O)c2ccc(Br)cc2)c1N` [Example 69, 2-Amino-3-(4-bromobenzoyl)benzeneacetic acid, ethyl ester]: the “Measurement of Edema at 3 hr.” value in data set [1] (setting [4]) was 0.50 ± 0.20 ml ± S.D. Moreover, the “% Change (edema vs control)” value in data set [1] (setting [5]) was -46%.
As for `Nc1c(CC(=O)O)cccc1C(=O)c1ccc(Br)cc1` [Example 74, 2-Amino-3-(4-bromobenzoyl)benzeneacetic acid, sodium salt, sesquihydrate], the “% Block” value in data set [3] (0.01 wt. % in 50 μl cream) was determined as 0%; in data set [3] (0.032 wt. % in 50 μl cream), 20%; in data set [3] (0.10 wt. % in 50 μl cream) it was 60%; in data set [3] (0.32 wt. % in 50 μl cream), 80%; in data set [3] (1.0 wt. % in 50 μl cream), 80%; in data set [3] (3.16 wt. % in 50 μl cream) it was 90%. Also, the “ED50 as % Concentration of Agent in Cream (95% Confidence Limits)” value in data set [3] (probit analysis, 95% confidence limits (0.06-0.29)) is 0.128%. Also, the “Measurement of Edema at 3 hr.” value is listed as 0.48 ± 0.17 ml ± S.D in data set [1] (Table 3, Formula B cream, pH = 3.5, 0.2 ml, 3.2% by weight (free acid basis), dermal) and 0.38 ± 0.18 ml ± S.D in data set [1] (Table 3, Formula B cream, pH = 3.5, 0.2 ml, 3.2% by weight (free acid basis), dermal, sodium salt, sesquihydrate). Further, the “3 Hr. Edema” value in data set [1] (setting [6]) is reported as 0.73 ± 0.33 ml ± S.D; in data set [1] (Table 4, first series, Formula B pH 3.5, 0.10 % (W/W), 1.1 mg/kg dermal, p < 0.05), 0.42 ± 0.21 ml ± S.D; in data set [1] (Table 4, first series, Formula B pH 3.5, 0.32 % (W/W), 3.7 mg/kg dermal, p < 0.05), 0.37 ± 0.19 ml ± S.D; in data set [1] (Table 4, first series, Formula B pH 3.5, 1.0 % (W/W), 11.9 mg/kg dermal, p < 0.05), 0.42 ± 0.10 ml ± S.D; in data set [1] (Table 4, first series, Formula B pH 3.5, 3.16 % (W/W), 36.5 mg/kg dermal, p < 0.05), 0.38 ± 0.18 ml ± S.D; in data set [1] (setting [7]), 0.88 ± 0.33 ml ± S.D. In addition, the “3 Hr. Edema” value in data set [1] (setting [8]) was 1.05 ± 0.22 ml ± S.D; in data set [1] (setting [9]) it was 0.55 ± 0.20 ml ± S.D; in data set [1] (Table 4, second series, Formula B pH 3.5, 0.32 % (W/W), 3.0 mg/kg dermal, p < 0.05), 0.42 ± 0.15 ml ± S.D; in data set [1] (Table 4, second series, Formula B pH 3.5, 1.0 % (W/W), 10.3 mg/kg dermal, p < 0.05), 0.37 ± 0.05 ml ± S.D; in data set [1] (Table 4, second series, Formula B pH 3.5, 3.16 % (W/W), 31.5 mg/kg dermal, p < 0.05), 0.48 ± 0.17 ml ± S.D. In addition, the “% Change (edema vs control)” value in data set [1] (setting [6]) is -26%; in data set [1] (Table 4, first series, Formula B pH 3.5, 0.10 % (W/W), 1.1 mg/kg dermal) it was -57%; in data set [1] (Table 4, first series, Formula B pH 3.5, 0.32 % (W/W), 3.7 mg/kg dermal), -62%; in data set [1] (Table 4, first series, Formula B pH 3.5, 1.0 % (W/W), 11.9 mg/kg dermal), -57%; in data set [1] (Table 4, first series, Formula B pH 3.5, 3.16 % (W/W), 36.5 mg/kg dermal), -61%; in data set [1] (setting [7]), “+3%”. Moreover, the “% Change (edema vs control)” value is on record as “+22%” in data set [1] (setting [8]); -36% in data set [1] (setting [9]); -52% in data set [1] (Table 4, second series, Formula B pH 3.5, 0.32 % (W/W), 3.0 mg/kg dermal); -57% in data set [1] (Table 4, second series, Formula B pH 3.5, 1.0 % (W/W), 10.3 mg/kg dermal); -44% in data set [1] (Table 4, second series, Formula B pH 3.5, 3.16 % (W/W), 31.5 mg/kg dermal). For the same molecule, in data set [1] (comparative study, Example 74 applied dermally to rats), the “Activity against edema compared with indomethacin applied dermally or orally” value is reported as “more active against the Edema than indomethacin applied dermally or orally”. Further, in data set [1] (comparative study), the “Activity applied dermally compared with orally for a given dose” value was “about as active applied dermally as it was orally for a given dose”.
As for `Nc1c(CC(=O)O)cccc1C(=O)c1ccc(I)cc1` [Example 57, 2-Amino-3-(4-iodobenzoyl)benzeneacetic acid, sodium salt, hydrate [4:1]], in data set [1] (setting [4]), the “Measurement of Edema at 3 hr.” value was 0.40 ± 0.14 ml ± S.D. The “% Change (edema vs control)” value in data set [1] (setting [5]) is given as -57%.

Source of the values: patent US4683242A, “Transdermal treatment for pain and inflammation with 2-amino-3-aroylbenzeneacetic acids, salts and esters” (A. H. Robins Company, Incorporated, priority 1985, dated 1987).
